Values quoted from earlier work in patent publication US20120289547A1, “COMBINATIONS OF PROPIVERINE AND SALIVARY STIMULANTS FOR THE TREATMENT OF OVERACTIVE BLADDER” (THERAVIDA, INC., priority 2011, published 2012).

Conditions: 5 mg of pilocarpine

## CC[C@@H]1C(=O)OC[C@@H]1Cc1cncn1C [pilocarpine]
  Time of maximum saliva output after administration: about 30 minutes
